Data on eleven compounds can be found in patent US12594276B2, “Inhibitors of human immunodeficiency virus replication” (ViiV Healthcare UK (No.5) Limited, priority 2024, dated 2026).

Where only a bound is given, the exact number is not on record here.

Series [1] can be described thus: Compound cytotoxicity, XTT-based colorimetric assay. The format is cell-based. The conditions noted are these: human; uninfected MT2 cells, day 4, XTT; read-out: CC50. Put shortly:
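Follows the antiviral assay procedure, but with uninfected MT2 cells. On day 4, cell viability is measured by XTT-based colorimetry, giving CC50 values.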

For series [2], the system named is recombinant NL4-3 virus (nef section replaced with Renilla luciferase gene) in MT-2 cells. Nature of the series: HIV cell culture assay (antiviral activity, luciferase readout). It is filed as cell-based. The settings on record: Renilla, NL43, MT-2 cells infected for 4-5 days with recombinant NL4-3 Renilla luciferase virus. The procedure, abridged: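 Compound activity was measured as reduction of luciferase in MT-2 cells infected for 4-5 days with serially diluted compound present. EC50 values were calculated with the median effect equation.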

In general, CC50 refers to the concentration giving 50% cytotoxicity. As usually defined, the EC50 is the midpoint of the concentration-response curve. Take `CS(=O)(=O)Nc1nn(CCN2C[C@H](F)C[C@H](F)C2)c2c(-n3c([C@H](Cc4cc(F)cc(F)c4)NC(=O)Cn4nc(C(F)F)c5c4C(F)(F)[C@@H]4C[C@H]54)nc4nc(C5CCC(F)(F)CC5)cc(C(F)F)c4c3=O)ccc(Cl)c12` (atropisomer, axis not shown; (P)) [Example 291, N-[(1S)-1-[(3P)-3-(4-chloro-1-{2-[(3R,5S)-3,5-difluoropiperidin-1-yl]ethyl}-3-methanesulfonamido-1H-indazol-7-yl)-7-(4,4-difluorocyclohexyl)-5-(difluoromethyl)-4-oxo-3H,4H-pyrido[2,3-d]pyrimidin-2-yl]-2-(3,5-difluorophenyl)ethyl]-2-[(2S,4R)-9-(difluoromethyl)-5,5-difluoro-7,8-diazatricyclo[4.3.0.0^2,^4]nona-1(6),8-dien-7-yl]acetamide]: the CC50 at 4 days in series [1] is > 50000 pM. In addition, the EC50 in series [2] is 12 pM.

Consider `CS(=O)(=O)Nc1nn(CCN2CCCC(F)(F)C2)c2c(-n3c([C@H](Cc4cc(F)cc(F)c4)NC(=O)Cn4nc(C(F)F)c5c4C(F)(F)[C@@H]4C[C@H]54)nc4nc(C5CCC(F)(F)CC5)cc(C(F)F)c4c3=O)ccc(Cl)c12` (atropisomer, axis not shown; (P)) [Example 292, N-[(1S)-1-[(3P)-3-{4-chloro-1-[2-(3,3-difluoropiperidin-1-yl)ethyl]-3-methanesulfonamido-1H-indazol-7-yl}-7-(4,4-difluorocyclohexyl)-5-(difluoromethyl)-4-oxo-3H,4H-pyrido[2,3-d]pyrimidin-2-yl]-2-(3,5-difluorophenyl)ethyl]-2-[(2S,4R)-9-(difluoromethyl)-5,5-difluoro-7,8-diazatricyclo[4.3.0.0^2,^4]nona-1(6),8-dien-7-yl]acetamide], for which, in series [1], the CC50 at 4 days was > 50000 pM. In addition, the concentration for a half-maximal effect (EC50) in series [2] is 16 pM.

Regarding `CS(=O)(=O)Nc1nn(CCN2C[C@H]3C[C@@H]2CO3)c2c(-n3c([C@H](Cc4cc(F)cc(F)c4)NC(=O)Cn4nc(C5CC5)c5c4C[C@@H]4C[C@H]54)nc4nc(C5CCC(F)(F)CC5)cc(C(F)F)c4c3=O)ccc(Cl)c12` (atropisomer, axis not shown; (P)) [Example 298, N-[(1S)-1-[(3P)-3-(4-chloro-3-methanesulfonamido-1-{2-[(1R,4R)-2-oxa-5-azabicyclo[2.2.1]heptan-5-yl]ethyl}-1H-indazol-7-yl)-7-(4,4-difluorocyclohexyl)-5-(difluoromethyl)-4-oxo-3H,4H-pyrido[2,3-d]pyrimidin-2-yl]-2-(3,5-difluorophenyl)ethyl]-2-[(2S,4S)-9-cyclopropyl-7,8-diazatricyclo[4.3.0.0^2,^4]nona-1(6),8-dien-7-yl]acetamide], in series [1], the CC50 at 4 days was > 50000 pM. Also, in series [2], the EC50 is 16 pM.

As to `CS(=O)(=O)Nc1nn(CCN2CC(F)(F)C2)c2c(-n3c([C@H](Cc4cc(F)cc(F)c4)NC(=O)Cn4nc(C(F)F)c5c4C(F)(F)[C@@H]4C[C@H]54)nc4nc(C5CCC(F)(F)CC5)cc(C(F)F)c4c3=O)ccc(Cl)c12` (atropisomer, axis not shown; (P)) [Example 307, N-[(1S)-1-[(3P)-3-{4-chloro-1-[2-(3,3-difluoroazetidin-1-yl)ethyl]-3-methanesulfonamido-1H-indazol-7-yl}-7-(4,4-difluorocyclohexyl)-5-(difluoromethyl)-4-oxo-3H,4H-pyrido[2,3-d]pyrimidin-2-yl]-2-(3,5-difluorophenyl)ethyl]-2-[(2S,4R)-9-(difluoromethyl)-5,5-difluoro-7,8-diazatricyclo[4.3.0.0^2,^4]nona-1(6),8-dien-7-yl]acetamide], the CC50 at 4 days in series [1] is > 50000 pM. Besides, the half-maximal effective concentration (EC50) in series [2] was 23 pM.

As for `Cc1cc(C2CCC(F)(F)CC2)nc2nc([C@H](Cc3cc(F)cc(F)c3)NC(=O)Cn3nc(C(F)F)c4c3C(F)(F)[C@@H]3C[C@H]43)n(-c3ccc(Cl)c4c(NS(C)(=O)=O)nn(CCN5C[C@@H]6C[C@H]5CC6(F)F)c34)c(=O)c12` (atropisomer, axis not shown; (P)) [Example 310, N-[(1S)-1-[(3P)-3-(4-chloro-1-{2-[(1S,4S)-5,5-difluoro-2-azabicyclo[2.2.1]heptan-2-yl]ethyl}-3-methanesulfonamido-1H-indazol-7-yl)-7-(4,4-difluorocyclohexyl)-5-methyl-4-oxo-3H,4H-pyrido[2,3-d]pyrimidin-2-yl]-2-(3,5-difluorophenyl)ethyl]-2-[(2S,4R)-9-(difluoromethyl)-5,5-difluoro-7,8-diazatricyclo[4.3.0.0^2,^4]nona-1(6),8-dien-7-yl]acetamide], the CC50 at 4 days in series [1] was > 50000 pM. Further, the concentration giving a half-maximal response (EC50) in series [2] is 19 pM.

As for `Cc1cc(C2CCC(F)(F)CC2)nc2nc([C@H](Cc3cc(F)cc(F)c3)NC(=O)Cn3nc(C4CC4)c4c3C[C@@H]3C[C@H]43)n(-c3ccc(Cl)c4c(NS(C)(=O)=O)nn(CCN5C[C@@H]6C[C@H]5CC6(F)F)c34)c(=O)c12` (atropisomer, axis not shown; (P)) [Example 311, N-[(1S)-1-[(3P)-3-(4-chloro-1-{2-[(1S,4S)-5,5-difluoro-2-azabicyclo[2.2.1]heptan-2-yl]ethyl}-3-methanesulfonamido-1H-indazol-7-yl)-7-(4,4-difluorocyclohexyl)-5-methyl-4-oxo-3H,4H-pyrido[2,3-d]pyrimidin-2-yl]-2-(3,5-difluorophenyl)ethyl]-2-[(2S,4S)-9-cyclopropyl-7,8-diazatricyclo[4.3.0.0^2,^4]nona-1(6),8-dien-7-yl]acetamide], the cytotoxic concentration (CC50) at 4 days in series [1] was > 50000 pM. Besides, the EC50 in series [2] stood at 13 pM.

Take `CS(=O)(=O)Nc1nn(CCN2CC(C(F)F)C2)c2c(-n3c([C@H](Cc4cc(F)cc(F)c4)NC(=O)Cn4nc(C(F)F)c5c4C(F)(F)[C@@H]4C[C@H]54)nc4nc(C5CCC(F)(F)CC5)cc(C(F)F)c4c3=O)ccc(Cl)c12` (atropisomer, axis not shown; (P)) [Example 315, N-[(1S)-1-[(3P)-3-(4-chloro-1-{2-[3-(difluoromethyl)azetidin-1-yl]ethyl}-3-methanesulfonamido-1H-indazol-7-yl)-7-(4,4-difluorocyclohexyl)-5-(difluoromethyl)-4-oxo-3H,4H-pyrido[2,3-d]pyrimidin-2-yl]-2-(3,5-difluorophenyl)ethyl]-2-[(2S,4R)-9-(difluoromethyl)-5,5-difluoro-7,8-diazatricyclo[4.3.0.0^2,^4]nona-1(6),8-dien-7-yl]acetamide]: in series [1], the half-maximal cytotoxic concentration (CC50) at 4 days was > 50000 pM. For the same compound, in series [2], the half-maximal effective concentration (EC50) amounted to 25 pM.

In the case of `CS(=O)(=O)Nc1nn(CCN2CCC(F)(F)CC2)c2c(-n3c([C@H](Cc4cc(F)cc(F)c4)NC(=O)Cn4nc(C(F)F)c5c4C(F)(F)[C@@H]4C[C@H]54)nc4nc(C5CCC(F)(F)CC5)cc(C5CC5)c4c3=O)ccc(Cl)c12` (atropisomer, axis not shown; (P)) [Example 321, N-[(1S)-1-[(3P)-3-{4-chloro-1-[2-(4,4-difluoropiperidin-1-yl)ethyl]-3-methanesulfonamido-1H-indazol-7-yl}-5-cyclopropyl-7-(4,4-difluorocyclohexyl)-4-oxo-3H,4H-pyrido[2,3-d]pyrimidin-2-yl]-2-(3,5-difluorophenyl)ethyl]-2-[(2S,4R)-9-(difluoromethyl)-5,5-difluoro-7,8-diazatricyclo[4.3.0.0^2,^4]nona-1(6),8-dien-7-yl]acetamide], in series [1], the half-maximal cytotoxic concentration (CC50) at 4 days is > 50000 pM. Also, in series [2], the EC50 is 20 pM.

Consider `CS(=O)(=O)Nc1nn(CCN2C[C@H](F)C[C@H](F)C2)c2c(-n3c([C@H](Cc4cc(F)cc(F)c4)NC(=O)Cn4nc(C(F)F)c5c4C(F)(F)[C@@H]4C[C@H]54)nc4nc(C5CCC(F)(F)CC5)cc(C5CC5)c4c3=O)ccc(Cl)c12` (atropisomer, axis not shown; (P)) [Example 322, N-[(1S)-1-[(3P)-3-(4-chloro-1-{2-[(3R,5S)-3,5-difluoropiperidin-1-yl]ethyl}-3-methanesulfonamido-1H-indazol-7-yl)-5-cyclopropyl-7-(4,4-difluorocyclohexyl)-4-oxo-3H,4H-pyrido[2,3-d]pyrimidin-2-yl]-2-(3,5-difluorophenyl)ethyl]-2-[(2S,4R)-9-(difluoromethyl)-5,5-difluoro-7,8-diazatricyclo[4.3.0.0^2,^4]nona-1(6),8-dien-7-yl]acetamide], for which the CC50 at 4 days in series [1] was > 50000 pM. Moreover, the concentration for a half-maximal effect (EC50) in series [2] amounted to 9 pM.

On to `C[C@@H]1CN(CCn2nc(NS(C)(=O)=O)c3c(Cl)ccc(-n4c([C@H](Cc5cc(F)cc(F)c5)NC(=O)Cn5nc(C6CC6)c6c5C[C@@H]5C[C@H]65)nc5nc(C6CCC(F)(F)CC6)cc(C6CC6)c5c4=O)c32)C[C@H](C)O1` (atropisomer, axis not shown; (P)) [Example 324, N-[(1S)-1-[(3P)-3-(4-chloro-1-{2-[(2R,6S)-2,6-dimethylmorpholin-4-yl]ethyl}-3-methanesulfonamido-1H-indazol-7-yl)-5-cyclopropyl-7-(4,4-difluorocyclohexyl)-4-oxo-3H,4H-pyrido[2,3-d]pyrimidin-2-yl]-2-(3,5-difluorophenyl)ethyl]-2-[(2S,4S)-9-cyclopropyl-7,8-diazatricyclo[4.3.0.0^2,^4]nona-1(6),8-dien-7-yl]acetamide], for which the CC50 at 4 days in series [1] was > 50000 pM. Moreover, the EC50 in series [2] stood at 14 pM.

Turning to `CS(=O)(=O)Nc1nn(CCN2C[C@H]3CC[C@@H](C2)O3)c2c(-n3c([C@H](Cc4cc(F)cc(F)c4)NC(=O)Cn4nc(C5CC5)c5c4C[C@@H]4C[C@H]54)nc4nc(C5CCC(F)(F)CC5)cc(C5CC5)c4c3=O)ccc(Cl)c12` (atropisomer, axis not shown; (P)) [Example 325, N-[(1S)-1-[(3P)-3-(4-chloro-3-methanesulfonamido-1-{2-[(1R,5S)-8-oxa-3-azabicyclo[3.2.1]octan-3-yl]ethyl}-1H-indazol-7-yl)-5-cyclopropyl-7-(4,4-difluorocyclohexyl)-4-oxo-3H,4H-pyrido[2,3-d]pyrimidin-2-yl]-2-(3,5-difluorophenyl)ethyl]-2-[(2S,4S)-9-cyclopropyl-7,8-diazatricyclo[4.3.0.0^2,^4]nona-1(6),8-dien-7-yl]acetamide], the CC50 at 4 days in series [1] was > 50000 pM. Also, the EC50 in series [2] turned out to be 9 pM.
